Test system: immunoglobulin light chain protein WIL-FL T46L
Test: Differential scanning fluorimetry (thermal shift) assay
Format: binding
Conditions: temperature shift [Tm]compound-[Tm]vehicle, recombinant WIL-FL T46L

Row | Compound | DSF (Table A) | DSF (Table B)
1 | Cc1nn(CC2C3COC2(c2nc4c(C)cc(N5CC[C@](C)(c6ccccc6)C5)cn4n2)C3)c(=O)[nH]1 (stereo partly drawn) [Compound 87] | ***** (>2.5° C.=*****) | 
2 | COc1cc(N2C[C@H]3CN(C(=O)c4nc5c(C)cc(N6CC[C@](C)(c7ccccc7)C6)cn5n4)C[C@H]3C2)cc(C(=O)O)n1 [Compound 630] |  | ***** (>2.5° C.=*****)
3 | Cc1cc(N2CC[C@](C)(c3ccccc3)C2)cn2nc(C34CC(CO3)C4COC3CC4(C3)CN(c3ccnc(O)c3)C4)nc12 (stereo partly drawn) [Compound 497, 4-(6-((1-(8-methyl-6-((R)-3-methyl-3-phenylpyrrolidin-1-yl)-[1,2,4]triazolo[1,5-a]pyridin-2-yl)-2-oxabicyclo[2.1.1]hexan-5-yl)methoxy)-2-azaspiro[3.3]heptan-2-yl)pyridin-2-ol] |  | ***** (>2.5° C.=*****)
4 | Cc1cc(N2CC[C@](C)(c3ccccc3)C2)cn2nc(C(=O)N3CC4(CC(Oc5cccc(C(=O)O)n5)C4)C3)nc12 [Compound 221] | ***** (>2.5° C.=*****) | 
5 | Cc1cc(N2CC[C@](C)(c3ccccc3)C2)cn2nc(C(=O)N3CC[C@]4(CCN(c5cccc(C(=O)O)n5)C4)C3)nc12 [Compound 268] | ***** (>2.5° C.=*****) | 
6 | CCC(=O)N1CC(O)C(NC(=O)c2nc3c(C)cc(N4CC[C@](C)(c5ccccc5)C4)cn3n2)C1 (stereo partly drawn) [Compound 108] | ***** (>2.5° C.=*****) | 
7 | Cc1nc([C@H]2[C@@]3(C(C)(C)O)CO[C@]2(c2nc4c(C)cc(N5CC[C@](C)(c6ccccc6)C5)cn4n2)C3)n[nH]1 [Compound 541] |  | ***** (>2.5° C.=*****)
8 | Cc1cc(OC[C@H](C)c2ccccc2)cn2nc(C(=O)NC3CC4(C3)CC(N3CC5C(C3)C5C(=O)O)C4)nc12 (stereo partly drawn) [Compound 314] | ***** (>2.5° C.=*****) | 
9 | Cc1cc(N2CC[C@](C)(c3ccccc3)C2)cn2nc(C(=O)N3CCC4NC(=O)CC43)nc12 (stereo partly drawn) [Compound 135] | ***** (>2.5° C.=*****) | 
10 | Cc1cc(N2CC[C@](C)(c3ccccc3)C2)cn2nc(C(=O)N3CCOC4(CCN(c5cccc(C(=O)O)n5)C4)C3)nc12 (stereo partly drawn) [Compound 242] | ***** (>2.5° C.=*****) | 
11 | Cc1cc(N2CC[C@](C)(c3ccccc3)C2)cn2nc(C(=O)NC34COC(C3)C4)nc12 [Compound 183] | ***** (>2.5° C.=*****) | 
12 | Cc1cc(N2CC[C@](C)(c3ccccc3)C2)cn2nc([C@]34C[C@H](CO3)[C@@H]4N3CC4(CN(c5cccc(C(=O)O)n5)C4)NC3=O)nc12 [Compound 520] |  | ***** (>2.5° C.=*****)
13 | COC(C)(CC(=O)N1CC2(C1)CN(C1C3COC1(c1nc4c(C)cc(N5CC[C@](C)(c6ccccc6)C5)cn4n1)C3)C(=O)N2)C(=O)O (stereo partly drawn) [Compound 518] |  | ***** (>2.5° C.=*****)
14 | Cc1cc(N2CC[C@](C)(c3ccccc3)C2)cn2nc([C@@]34C[C@@H](CO3)[C@H]4N3CC4(CN(c5cccc(C(=O)O)n5)C4)NC3=O)nc12 [Compound 519] |  | ***** (>2.5° C.=*****)
15 | Cc1cc(N2CC[C@](C)(c3ccccc3)C2)cn2nc(C(=O)N3CC4CCC3C(=O)N4c3cccc(C(=O)O)n3)nc12 (stereo partly drawn) [Compound 695, 6-[5-[8-methyl-6-[(3R)-3-methyl-3-phenyl-pyrrolidin-1-yl]-[1,2,4]triazolo[1,5-a]pyridine-2-carbonyl]-3-oxo-2,5-diazabicyclo[2.2.2]octan-2-yl]pyridine-2-carboxylic acid] |  | ***** (>2.5° C.=*****)
16 | Cc1cc(N2CC[C@](C)(c3ccccc3)C2)cn2nc(C(=O)N3CC[C@@]4(CCN(C(=O)C5CC(C)(C(=O)O)C5)C4)C3)nc12 (stereo partly drawn) [Compound 709] |  | ***** (>2.5° C.=*****)
17 | Cc1cc(N2CC[C@](C)(c3ccc(Cl)cc3)C2)cn2nc(C(=O)N3C[C@@H]4CN(c5cccc(C(=O)O)n5)C[C@@H]4C3)nc12 [Compound 420] | ***** (>2.5° C.=*****) | 

Row | Compound | DSF (Table A) | DSF (Table B)
18 | Cc1cc(N2CC[C@](C)(c3ccccc3)C2)cn2nc(C(=O)N3CCC4(CC3)CC(N3CC5C(C3)C5C(=O)O)CO4)nc12 (stereo partly drawn) [Compound 370] | ***** (>2.5° C.=*****) | 
19 | Cc1cc(N2CC[C@](C)(c3ccccc3)C2)cn2nc(C34CC(CO3)C4N3CC4(CN(c5cccc(C(=O)O)n5)C4)NC3=O)nc12 (stereo partly drawn) [Compound 516] |  | ***** (>2.5° C.=*****)
20 | COC(C)(CC(=O)N1CC[C@@]2(CCN(C(=O)c3nc4c(C)cc(N5CC[C@](C)(c6ccccc6)C5)cn4n3)C2)C1)C(=O)O (stereo partly drawn) [Compound 706, 2-methoxy-2-methyl-4-[(5R)-2-[8-methyl-6-[(3R)-3-methyl-3-phenyl-pyrrolidin-1-yl]-[1,2,4]triazolo[1,5-a]pyridine-2-carbonyl]-2,7-diazaspiro[4.4]nonan-7-yl]-4-oxo-butanoic acid] |  | ***** (>2.5° C.=*****)
21 | Cc1cc(N2CC[C@](C)(c3ccccc3)C2)cn2nc(C(=O)N[C@H]3CC[C@H](c4ccc(C(=O)O)c(F)c4)CC3)nc12 [Compound 225] | ***** (>2.5° C.=*****) | 
22 | CNC(=O)c1nc2c(C)cc(N3CC[C@@](c4ccccc4)(C(F)F)C3)cn2n1 [Compound 329] | ***** (>2.5° C.=*****) | 
23 | Cc1cc(N2CC[C@](C)(c3ccccc3)C2)cn2nc(C(=O)N3CC[C@@]4(CCN(C(=O)C56CCCC(C(=O)O)(C5)C6)C4)C3)nc12 [Compound 733, 5-((R)-7-(8-methyl-6-((R)-3-methyl-3-phenylpyrrolidin-1-yl)-[1,2,4]triazolo[1,5-a]pyridine-2-carbonyl)-2,7-diazaspiro[4.4]nonane-2-carbonyl)bicyclo[3.1.1]heptane-1-carboxylic acid] |  | ***** (>2.5° C.=*****)
24 | Cc1n[nH]c(C2C3COC2(c2nc4c(C)cc(OC[C@H](C)c5ccccc5)cn4n2)C3)n1 (stereo partly drawn) [Compound 436] | ***** (>2.5° C.=*****) | 
25 | C[C@]1(c2ccccc2)CCN(c2cc(CO)c3nc(C45CC(CO4)C5C(N)=O)nn3c2)C1 (stereo partly drawn) [Compound 495] |  | ***** (>2.5° C.=*****)
26 | Cc1cc(N2CC[C@](C)(c3ccccc3)C2)cn2nc(C(=O)N[C@H]3CCN(CC(F)F)C3)nc12 [Compound 193] | ***** (>2.5° C.=*****) | 
27 | Cc1cc(N2CC[C@](C)(c3ccccc3)C2)cn2nc(C(=O)NC(C)(C)C(=O)O)nc12 [Compound 169] | ***** (>2.5° C.=*****) | 
28 | CC(=O)NC12COC(c3nc4c(C)cc(N5CC[C@](C)(c6ccccc6)C5)cn4n3)(C1)C2c1nc(C)n(C)n1 (stereo partly drawn) [Compound 540] |  | ***** (>2.5° C.=*****)
29 | Cc1cc(N2CC[C@](C)(c3ccccc3)C2)cn2nc(C(=O)N[C@@H]3CN(c4cccc(C(=O)O)n4)CC34CC4)nc12 [Compound 698] |  | ***** (>2.5° C.=*****)
30 | Cc1cc(N2CC[C@](C)(c3ccccc3)C2)cn2nc(C(=O)NC[C@@H]3CCCN3c3cccc(C(=O)O)n3)nc12 [Compound 689] |  | ***** (>2.5° C.=*****)
31 | Cc1cc(N2CC[C@](C)(c3ccccc3)C2)cn2nc(C(=O)NC34CCC(C(C)(C)O)(C3)C4)nc12 [Compound 208] | ***** (>2.5° C.=*****) | 
32 | Cc1cc(N2CC[C@](C)(c3ccccc3)C2)cn2nc(C34CC(NC(=O)C5CC(C(=O)O)C5)(CO3)C4)nc12 (stereo partly drawn) [Compound 468] |  | ***** (>2.5° C.=*****)
33 | Cc1cc(N2CC3(CCC3c3cccc(F)c3)C2)cn2nc(C34CC(CO3)C4N3CC4(CC4)NC3=O)nc12 (stereo not drawn) [Compound 512, 6-[1-[6-[7-(3-fluorophenyl)-2-azaspiro[3.3]heptan-2-yl]-8-methyl-[1,2,4]triazolo[1,5-a]pyridin-2-yl]-2-oxabicyclo[2.1.1]hexan-5-yl]-4,6-diazaspiro[2.4]heptan-5-one] |  | ***** (>2.5° C.=*****)

From US20260285857A1, “BICYCLIC AND HETEROCYCLIC AMIDE COMPOUNDS” (priority 2024, published 2026)
